Tests used:
angiotensin II [1] = experiment: Test of the antagonistic activity of angiotensin II by oral route in a demedullated rat; format: in vivo, Male Sprague Dawley rats; conditions: oral (force-feeding), angiotensin II 0.75 ug/kg 60 and 75 minutes after force-feeding, read-out: ID50 (dose inhibiting the effects on pressure of angiotensin II by 50%), oral route
Experimental: Male Sprague Dawley rats of equal weight (300-330 g) were selected. The animals were divided into several groups (n ≥6 per group), receiving either the solvent (control group) or the antagonistic molecule of angiotensin II. The doses administered were determined from the ID50 IV. The solvent used. was methyl cellulose (5 ml/kg).
45 minutes after force-feeding, the animals were anaesthetized with sodium pentobarbital (60 mg/kg, IP). The diastolic arterial pressure was recorded using a heparinated catheter (PE50) introduced into the left carotid artery of the animal, and connected by means of a pressure sensor (Gould, P10 EZ) to a pressure processor (Gould, Pressure Processor). The rat was put under assisted respiration, then demedullated and bilaterally vagotomized.
Two injections of angiotensin II (0.75 ug/kg; Hypertensin, Ciba) were given via the pudendal vein, 60 and 75 minutes respectively after the force-feeding of the animals.
The effects on pressure of angiotensin II in the presence of the antagonist were expressed as a percentage of the effects on pressure of angiotensin II administered to the control group.
For each product, the dose inhibiting the studied effect by 50% (ID50) was thus determined.

angiotensin II [2] = experiment: Test for antagonistic activity of angiotensin II in a demedullated rat (intravenous); format: in vivo, Male Sprague-Dawley rats; conditions: injected via right jugular vein 5 minutes before angiotensin II (0.75 micrograms/kg), diastolic arterial pressure, read-out: ID50 (dose inhibiting the effects on pressure of angiotensin II by 50%)
Experimental: Male Sprague-Dawley rats (250 to 350 g) were anaesthetized by an intra-peritoneal injection of sodium pentobarbital (60 mg/kg). The diastolic arterial pressure was recorded using a heparinated catheter (PE50) introduced into the left carotid artery of the animal, and connected to a pressure processor (Gould, Pressure Processor) by means of a Gould pressure sensor.
A catheter was introduced into the right jugular vein of the animal to permit the injection of the molecules to be studied.
The animal was placed under assisted respiration. A bilateral section of the pneumogastric nerve is carried out. The rat is then demedullated.
After a sufficient period of stabilization, the study of the antagonism of the molecules vis-a-vis angiotensin II (Hypertensin, CIBA) was carried out in the following way:
1--Three consecutive injections of angiotensin II (0.75 micrograms/kg) at 15 minute intervals enabled a reproducible and stable pressure response to be obtained.
2--While keeping an administration frequency of 15 minutes of the angiotensin II, the molecules (0.01 to 10 mg/kg) were injected 5 minutes before the angiotensin II.
The effects on pressure of angiotensin II in the presence of the antagonist were expressed as a percentage of the effects on pressure of angiotensin II administered on its own. The dose inhibiting the studied effect by 50% was determined in this way (ID50). […]

angiotensin II receptor = molecular target: T1, angiotensin II receptor (Rattus norvegicus, UniProt P25095); experiment: Test on the angiotensin II receptor (displacement of 125I angiotensin II, fresh rat liver membrane preparation); format: binding; conditions: rat liver membranes, 25° C., 150 minutes, read-out: IC50 (50% inhibiting concentration, displacement of 125I angiotensin II)
T1 construct: A fresh membrane preparation obtained from the liver of a rat was used; from tissue; host or cells: rat liver, fresh membrane preparation
T1 sequence (P25095 1-359): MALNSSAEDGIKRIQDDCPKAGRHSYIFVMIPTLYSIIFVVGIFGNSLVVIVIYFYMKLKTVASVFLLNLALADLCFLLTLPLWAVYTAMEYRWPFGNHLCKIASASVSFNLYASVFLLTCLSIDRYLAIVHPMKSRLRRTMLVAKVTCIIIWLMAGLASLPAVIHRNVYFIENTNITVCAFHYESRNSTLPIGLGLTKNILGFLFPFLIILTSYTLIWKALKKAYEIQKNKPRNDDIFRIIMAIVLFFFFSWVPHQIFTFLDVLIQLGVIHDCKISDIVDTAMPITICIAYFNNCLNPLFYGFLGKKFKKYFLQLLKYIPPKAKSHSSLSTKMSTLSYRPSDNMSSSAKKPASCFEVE
Experimental: A fresh membrane preparation obtained from the liver of a rat was used. The tissue was ground in a polytron in a Tris 50 mM pH 7.4 buffer and the grinding is followed by 3 centrifugings at 30,000 g for 15 minutes with intermediate taking up of the pellets in the Tris pH 7.4 buffer.
The last pellets were suspended in an incubation buffer (Tris 20 mM, NaCl 135 mM, KCl 10 mM, glucose 5 mM, MgCl2 10 mM, PMSF 0.3 mM, bacitracin 0.1 mM, BSA 0.2%).
2 ml aliquot fractions were distributed in hemolysis tubes and ^125 I angiotensin II (25,000 DPM/tube) and the product to be studied were added. The product was first tested with 3×10^-5 M in triplicate. When the tested product displaced more than 50% of the radioactivity bound specifically to the receptor, it was tested again according to a range of 7 concentrations to determine the concentration which inhibited by 50% the radioactivity bound specifically to the receptor. In this way, the 50% inhibiting concentration was determined.
The non-specific bond was determined by the addition of the product of Example 94 of the European Patent 0253310, at 10^-5 M (in triplicate).The product was incubated at 25° C. for 150 minutes, put in a water-bath at 0° C. for 5 minutes, filtered under vacuum, rinsed with Tris pH 7.4 buffer and the radioactivity was counted in the presence of scintillating Triton. […]

| IC50 (angiotensin II receptor) | Structure (SMILES) | ED50 (angiotensin II [1]) | ED50 (angiotensin II [2]) |
| --- | --- | --- | --- |
| 0.5 nM | CCCCc1nn2cccc(C(=O)O)c2c1Cc1ccc(-c2ccccc2-c2nnn[nH]2)cc1 [Example 21, 2-butyl 3-[(2'-(1H-tetrazol-5-yl) (1,1'-biphenyl) 4-yl)methyl]pyrazolo(1,5-a)pyridin 4-carboxylic acid] | 2.35 mg/kg | 0.3 mg/kg |
| 24 nM | CCCCc1nn2c(C)cccc2c1Cc1ccc(-c2ccccc2-c2nn[nH]n2)cc1 [Example 32, 2-butyl 7-methyl 3-[[2'-(1H-tetrazol--S--yl) (1,1'-biphenyl) 4-yl]methyl]pyrazolo (1,5-a) pyridine] | – | – |
